According to PubChem BioAssay (NCI):
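Where inhibition never reached the appropriate level, the endpoint shown equals the highest concentration tested. Otherwise, values were interpolated linearly from a five-concentration, 48-hour dose response in 96-well plates. GI50: concentration for 50% inhibition of growth. TGI is the concentration that stops growth completely.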

Tests used:
Assay in all cases: DTP human tumour cell line panel, 48 h
HL-60(TB) leukemia = tested on: HL-60(TB) leukemia
SNB-75 CNS = tested on: SNB-75 CNS
BT-549 breast = tested on: BT-549 breast
NCI/ADR-RES ovarian = tested on: NCI/ADR-RES ovarian
A498 renal = tested on: A498 renal
SF-539 CNS = tested on: SF-539 CNS
TK-10 renal = tested on: TK-10 renal
UACC-62 melanoma = tested on: UACC-62 melanoma
M14 melanoma = tested on: M14 melanoma
SK-OV-3 ovarian = tested on: SK-OV-3 ovarian
SK-MEL-28 melanoma = tested on: SK-MEL-28 melanoma
A549 NSCLC = tested on: A549 NSCLC
PC-3 prostate = tested on: PC-3 prostate
RXF 393 renal = tested on: RXF 393 renal
NCI-H522 lung = tested on: NCI-H522 lung
OVCAR-3 ovarian = tested on: OVCAR-3 ovarian
OVCAR-5 ovarian = tested on: OVCAR-5 ovarian
CCRF-CEM leukemia = tested on: CCRF-CEM leukemia
SF-268 CNS = tested on: SF-268 CNS
EKVX NSCLC = tested on: EKVX NSCLC
SK-MEL-2 melanoma = tested on: SK-MEL-2 melanoma
RPMI-8226 leukemia = tested on: RPMI-8226 leukemia
UACC-257 melanoma = tested on: UACC-257 melanoma
K-562 leukemia = tested on: K-562 leukemia
IGROV1 ovarian = tested on: IGROV1 ovarian
786-0 renal = tested on: 786-0 renal
CAKI-1 renal = tested on: CAKI-1 renal
ACHN renal = tested on: ACHN renal
HOP-62 NSCLC = tested on: HOP-62 NSCLC
DU-145 prostate = tested on: DU-145 prostate
HCT-15 colon = tested on: HCT-15 colon
NCI-H460 lung = tested on: NCI-H460 lung
UO-31 renal = tested on: UO-31 renal
HCT-116 colon = tested on: HCT-116 colon
MCF7 breast = tested on: MCF7 breast
HT29 colon = tested on: HT29 colon
OVCAR-8 ovarian = tested on: OVCAR-8 ovarian
SW-620 colon = tested on: SW-620 colon
SF-295 CNS = tested on: SF-295 CNS
SN12C renal = tested on: SN12C renal
MDA-MB-435 = tested on: MDA-MB-435
SNB-19 CNS = tested on: SNB-19 CNS
SK-MEL-5 melanoma = tested on: SK-MEL-5 melanoma
HOP-92 NSCLC = tested on: HOP-92 NSCLC
OVCAR-4 ovarian = tested on: OVCAR-4 ovarian
U251 CNS = tested on: U251 CNS
COLO 205 colon = tested on: COLO 205 colon
KM12 colon = tested on: KM12 colon
T-47D breast = tested on: T-47D breast
HCC-2998 colon = tested on: HCC-2998 colon
LOX IMVI melanoma = tested on: LOX IMVI melanoma
MALME-3M melanoma = tested on: MALME-3M melanoma
SR leukemia = tested on: SR leukemia
MOLT-4 leukemia = tested on: MOLT-4 leukemia
HS 578T breast = tested on: HS 578T breast
MDA-MB-231 breast = tested on: MDA-MB-231 breast
NCI-H226 lung = tested on: NCI-H226 lung

In the case of `NC(N)=Nc1ccc(Oc2cccc(Nc3cccc(C(F)(F)F)c3)c2)cn1`, the GI50 (HL-60(TB) leukemia) is reported as 2040 nM, the TGI (HL-60(TB) leukemia) is reported as 4360 nM and the GI50 (SNB-75 CNS) is reported as 1370 nM. It also gave a TGI (SNB-75 CNS) of 2740 nM, a GI50 (BT-549 breast) of 1760 nM and a TGI (BT-549 breast) of 3300 nM. It also gave a GI50 (NCI/ADR-RES ovarian) of 4850 nM, a TGI (NCI/ADR-RES ovarian) of 37600 nM and a GI50 (A498 renal) of 1510 nM. It also gave a TGI (A498 renal) of 3020 nM, a GI50 (SF-539 CNS) of 1720 nM and a TGI (SF-539 CNS) of 3220 nM. It also gave a GI50 (TK-10 renal) of 1850 nM, a TGI (TK-10 renal) of 3630 nM and a GI50 (UACC-62 melanoma) of 1790 nM. The TGI (UACC-62 melanoma) was 3400 nM, the GI50 (M14 melanoma) was 1760 nM and the TGI (M14 melanoma) was 3330 nM. It also gave a GI50 (SK-OV-3 ovarian) of 2080 nM, a TGI (SK-OV-3 ovarian) of 4270 nM and a GI50 (SK-MEL-28 melanoma) of 1700 nM. The TGI (SK-MEL-28 melanoma) was 3160 nM, the GI50 (A549 NSCLC) was 1880 nM and the TGI (A549 NSCLC) was 4420 nM. For the same compound, the GI50 (PC-3 prostate) was 1470 nM, the TGI (PC-3 prostate) was 2880 nM and the GI50 (RXF 393 renal) was 1760 nM. It also gave a TGI (RXF 393 renal) of 3390 nM.
`CC[C@H](CO)Nc1ccc2ncc(C#Cc3cncc(C(=O)Nc4ccc(CN5CCN(C)CC5)c(C(F)(F)F)c4)c3)n2n1` was tested, and the GI50 (HL-60(TB) leukemia) was 218 nM, the TGI (HL-60(TB) leukemia) was 648 nM and the GI50 (NCI-H522 lung) was 238 nM. The TGI (NCI-H522 lung) was 997 nM, the GI50 (SNB-75 CNS) was 48.4 nM and the TGI (SNB-75 CNS) was 314 nM. The GI50 (OVCAR-3 ovarian) was 576 nM, the TGI (OVCAR-3 ovarian) was 1630 nM and the GI50 (OVCAR-5 ovarian) was 553 nM. The TGI (OVCAR-5 ovarian) was 2070 nM, the GI50 (BT-549 breast) was 580 nM and the TGI (BT-549 breast) was 1670 nM. The GI50 (NCI/ADR-RES ovarian) was 5850 nM, the TGI (NCI/ADR-RES ovarian) was 13400 nM and the GI50 (CCRF-CEM leukemia) was 188 nM. For the same compound, the TGI (CCRF-CEM leukemia) was 1370 nM, the GI50 (SF-268 CNS) was 246 nM and the TGI (SF-268 CNS) was 1220 nM. For the same compound, the GI50 (EKVX NSCLC) was 391 nM, the TGI (EKVX NSCLC) was 1620 nM and the GI50 (SK-MEL-2 melanoma) was 470 nM. The TGI (SK-MEL-2 melanoma) was 1210 nM, the GI50 (A498 renal) was 266 nM and the TGI (A498 renal) was 721 nM. The GI50 (RPMI-8226 leukemia) was 577 nM, the TGI (RPMI-8226 leukemia) was 1800 nM and the GI50 (UACC-257 melanoma) was 760 nM. The TGI (UACC-257 melanoma) was 1530 nM, the GI50 (SF-539 CNS) was 45.4 nM and the TGI (SF-539 CNS) was 266 nM. It also gave a GI50 (K-562 leukemia) of 15.8 nM, a TGI (K-562 leukemia) of 636 nM and a GI50 (IGROV1 ovarian) of 152 nM. For the same compound, the TGI (IGROV1 ovarian) was 835 nM, the GI50 (786-0 renal) was 362 nM and the TGI (786-0 renal) was 1080 nM. The GI50 (CAKI-1 renal) was 349 nM, the TGI (CAKI-1 renal) was 1110 nM and the GI50 (ACHN renal) was 442 nM. For the same compound, the TGI (ACHN renal) was 1130 nM, the GI50 (HOP-62 NSCLC) was 288 nM and the TGI (HOP-62 NSCLC) was 1090 nM. For the same compound, the GI50 (DU-145 prostate) was 579 nM, the TGI (DU-145 prostate) was 1430 nM and the GI50 (HCT-15 colon) was 813 nM. For the same compound, the TGI (HCT-15 colon) was 2070 nM, the GI50 (NCI-H460 lung) was 423 nM and the TGI (NCI-H460 lung) was 1140 nM. It also gave a GI50 (UO-31 renal) of 940 nM, a TGI (UO-31 renal) of 2140 nM and a GI50 (HCT-116 colon) of 170 nM. It also gave a TGI (HCT-116 colon) of 662 nM, a GI50 (MCF7 breast) of 163 nM and a TGI (MCF7 breast) of 807 nM. The GI50 (HT29 colon) was 221 nM, the TGI (HT29 colon) was 933 nM and the GI50 (OVCAR-8 ovarian) was 589 nM. For the same compound, the TGI (OVCAR-8 ovarian) was 1320 nM, the GI50 (SW-620 colon) was 186 nM and the TGI (SW-620 colon) was 803 nM. The GI50 (SF-295 CNS) was 555 nM, the TGI (SF-295 CNS) was 1600 nM and the GI50 (TK-10 renal) was 1000 nM. For the same compound, the TGI (TK-10 renal) was 2450 nM, the GI50 (SN12C renal) was 160 nM and the TGI (SN12C renal) was 1030 nM. For the same compound, the GI50 (UACC-62 melanoma) was 767 nM, the TGI (UACC-62 melanoma) was 1570 nM and the GI50 (M14 melanoma) was 322 nM. The TGI (M14 melanoma) was 1010 nM, the GI50 (MDA-MB-435) was 451 nM and the TGI (MDA-MB-435) was 1090 nM. For the same compound, the GI50 (SNB-19 CNS) was 880 nM, the TGI (SNB-19 CNS) was 3280 nM and the GI50 (SK-MEL-5 melanoma) was 766 nM. For the same compound, the TGI (SK-MEL-5 melanoma) was 1460 nM, the GI50 (HOP-92 NSCLC) was 70 nM and the TGI (HOP-92 NSCLC) was 307 nM. The GI50 (OVCAR-4 ovarian) was 507 nM, the TGI (OVCAR-4 ovarian) was 2540 nM and the GI50 (U251 CNS) was 580 nM. For the same compound, the TGI (U251 CNS) was 1310 nM, the GI50 (COLO 205 colon) was 126 nM and the TGI (COLO 205 colon) was 319 nM. The GI50 (KM12 colon) was 16.5 nM, the TGI (KM12 colon) was 1180 nM and the GI50 (SK-OV-3 ovarian) was 1190 nM. It also gave a TGI (SK-OV-3 ovarian) of 2780 nM, a GI50 (SK-MEL-28 melanoma) of 681 nM and a TGI (SK-MEL-28 melanoma) of 1490 nM. The GI50 (T-47D breast) was 900 nM, the TGI (T-47D breast) was 2920 nM and the GI50 (HCC-2998 colon) was 703 nM. For the same compound, the TGI (HCC-2998 colon) was 1690 nM, the GI50 (LOX IMVI melanoma) was 206 nM and the TGI (LOX IMVI melanoma) was 817 nM. The GI50 (MALME-3M melanoma) was 660 nM, the TGI (MALME-3M melanoma) was 1430 nM and the GI50 (SR leukemia) was 196 nM. It also gave a TGI (SR leukemia) of 888 nM, a GI50 (A549 NSCLC) of 356 nM and a TGI (A549 NSCLC) of 1450 nM. The GI50 (MOLT-4 leukemia) was 239 nM, the TGI (MOLT-4 leukemia) was 1940 nM and the GI50 (HS 578T breast) was 200 nM. For the same compound, the TGI (HS 578T breast) was 1070 nM, the GI50 (PC-3 prostate) was 670 nM and the TGI (PC-3 prostate) was 2800 nM. It also gave a GI50 (MDA-MB-231 breast) of 142 nM, a TGI (MDA-MB-231 breast) of 903 nM and a GI50 (RXF 393 renal) of 273 nM. It also gave a TGI (RXF 393 renal) of 910 nM, a GI50 (NCI-H226 lung) of 205 nM and a TGI (NCI-H226 lung) of 1170 nM.
